Test results reported in US7122545B2, “Imidazo-benzothiazoles” (Hoffmann-La Roche Inc., priority 2003, dated 2006).
Where a name gives a salt, the structure may show the parent alone.

Key:
[1] = molecular target: T1, human adenosine A2A receptor (Homo sapiens, UniProt P29274); experiment: Human adenosine A2A receptor [3H]-SCH-58261 binding assay (SPA); conditions: recombinant receptor in CHO cell membranes; [3H]-SCH-58261 1 nM; Ki by Cheng-Prussoff; read-out: hA2 (pKi) (converted)
T1 construct: expressed in transfected cells; host or cells: CHO cells, semliki forest virus expression system; membrane preparation
T1 sequence (P29274 whole entry): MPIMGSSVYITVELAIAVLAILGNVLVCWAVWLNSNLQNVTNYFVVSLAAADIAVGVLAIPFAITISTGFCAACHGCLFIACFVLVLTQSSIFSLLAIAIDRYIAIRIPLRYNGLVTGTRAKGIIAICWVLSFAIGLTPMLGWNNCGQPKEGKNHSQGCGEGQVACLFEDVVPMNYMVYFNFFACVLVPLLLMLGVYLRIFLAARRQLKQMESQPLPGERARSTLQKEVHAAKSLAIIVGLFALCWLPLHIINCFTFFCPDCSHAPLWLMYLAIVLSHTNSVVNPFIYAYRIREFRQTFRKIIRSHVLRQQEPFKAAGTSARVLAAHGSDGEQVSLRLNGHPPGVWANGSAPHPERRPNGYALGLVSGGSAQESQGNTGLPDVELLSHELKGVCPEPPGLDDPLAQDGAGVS
Description: Human Adenosine A2A Receptor
(§1) The human adenosine A2A receptor was recombinantly expressed in Chinese hamster ovary (CHO) cells using the semliki forest virus expression system. Cells were harvested, washed twice by centrifugation, homogenized and again washed by centrifugation. The final washed membrane pellet was suspended in a Tris (50 mM) buffer containing 120 mM NaCl, 5 mM KCl, 2 mM CaCl2 and 10 mM MgCl2 (pH 7.4) (buffer A). The [^3H]-SCH-58261 (Dionisotti et al., 1997, Br J Pharmacol 121, 353; 1 nM) binding assay was carried out in 96-well plates in the presence of 2.5 μg of membrane protein, 0.5 mg of Ysi-poly-1-lysine SPA beads and 0.1 U adenosine deaminase in a final volume of 200 μl of buffer A. Non-specific binding was defined using xanthine amine congener (XAC; 2 μM). Compounds were tested at 10 concentrations from 10 μM-0.3 nM. All assays were conducted in duplic and repeated at least two times. Assay plates were incubated for hour at room temperature before centrifugation and then bound ligand determined using a Packard Topcount scintillation counter. IC50 values were calculated using a non-linear curve fitting program and Ki values calculated using the Cheng-Prussoff equation.

[2] = molecular target: T2, human adenosine A1 receptor (Homo sapiens, UniProt P30542); experiment: Human adenosine A1 receptor [3H]-DPCPX binding assay (SPA); conditions: recombinant receptor in CHO cell membranes; [3H]-DPCPX 0.6 nM; Ki by Cheng-Prussoff; read-out: hA1 (pKi) (converted)
T2 construct: expressed in transfected cells; host or cells: CHO cells, semliki forest virus expression system; membrane preparation
T2 sequence (P30542 1-326): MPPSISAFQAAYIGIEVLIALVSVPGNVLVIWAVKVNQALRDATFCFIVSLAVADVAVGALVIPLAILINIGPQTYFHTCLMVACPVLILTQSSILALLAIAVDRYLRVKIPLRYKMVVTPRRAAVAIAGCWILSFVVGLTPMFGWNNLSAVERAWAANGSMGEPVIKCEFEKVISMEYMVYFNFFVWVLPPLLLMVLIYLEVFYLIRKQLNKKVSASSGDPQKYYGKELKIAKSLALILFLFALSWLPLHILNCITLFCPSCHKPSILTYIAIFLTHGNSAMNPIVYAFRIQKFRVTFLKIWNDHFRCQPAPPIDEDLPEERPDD
Description: Human Adenosine A1 receptor
as §1, with “human adenosine A1 receptor was” for “human adenosine A2A receptor was”, “A). The [^3H]-DPCPX (([propyl-^3H]8-cyclopentyl-1,3-dipropyxanthine); 0.6 nM) binding” for “A). The [^3H]-SCH-58261 (Dionisotti et al., 1997, Br J Pharmacol 121, 353; 1 nM) binding”, “from 10 μM–0.3 nM. All” for “from 10 μM-0.3 nM. All”, “conducted in duplicate and repeated” for “conducted in duplic and repeated”, “incubated for 1 hour at” for “incubated for hour at”

Row | Structure (SMILES) | melting point [°C] | Ki [1] [nM] | Ki [2] [nM]
1 | COc1ccc(N2CCOCC2)c2sc(-c3nc(-c4ccccc4)c[nH]3)nc12 [Example 15, 4-Methoxy-7-morpholin-4-yl-2-(4-phenyl-1H-imidazol-2-yl)-benzothiazole] | 226 to 233 | – | –
2 | COc1ccc(N2CCOCC2)c2sc(-c3nc(-c4ccc5c(c4)OCCO5)c[nH]3)nc12 [Example 16, 2-[4-(2,3-Dihydro-benzo[1,4]dioxin-6-yl)-1H-imidazol-2-yl]-4-methoxy-7-morpholin-4-yl-benzothiazole] | 235 to 237 | – | –
3 | COc1ccc(N2CCOCC2)c2sc(-c3nc(-c4ccsc4)c[nH]3)nc12 (as salt: ammonium) [Example 19, 4-Methoxy-7-morpholin-4-yl-2-(4-thiophen-3-yl-1H-imidazol-2-yl)-benzothiazole] | 170 | – | –
4 | COc1ccc(N2CCOCC2)c2sc(-c3nc(-c4cccs4)c[nH]3)nc12 (as salt: ammonium) [Example 18, 4-Methoxy-7-morpholin-4-yl-2-(4-thiophen-2-yl-1H-imidazol-2-yl)-benzothiazole] | 165 | – | –
5 | COc1ccc(N2CCOCC2)c2sc(-c3nc4ccc(N5CCOCC5)nc4[nH]3)nc12 [Example 9, 2-(4-Methoxy-7-morpholin-4-yl-benzothiazol-2-yl)-5-morpholin-4-yl-3H-imidazo[4,5-b]pyridine] | – | 2.51 | –
6 | COc1ccc(C2CCOCC2)c2sc(-c3ncc[nH]3)nc12 [Example 45, 2-(1H-Imidazol-2-yl)-4-methoxy-7-(tetrahydro-pyran-4-yl)-benzothiazole] | 220 to 224 | – | –
7 | COc1ccc(N2CCOCC2)c2sc(-c3ncc(-c4sc5ccccc5c4C)[nH]3)nc12 [Example 20, 4-Methoxy-2-[5-(3-methyl-benzo[b]thiophen-2-yl)-1H-imidazol-2-yl]-7-morpholin-4-yl-benzothiazole] | 213 to 215 | 50.1 | –
8 | COc1ccc(-c2ccccc2)c2sc(-c3ncc[nH]3)nc12 [Example 4, 2-(1H-Imidazol-2-yl)-4-methoxy-7-phenyl-benzothiazole] | 205 to 206 | 5.01 | 200
9 | COc1ccc(N2CCOCC2)c2sc(-c3ncc(-c4csc5ccccc45)[nH]3)nc12 [Example 17, 2-(5-Benzo[b]thiophen-3-yl-1H-imidazol-2-yl)-4-methoxy-7-morpholin-4-yl-benzothiazole] | 161 to 162 | – | –
10 | COc1ccc(N2CCOCC2)c2sc(-c3nc4ccc(N(C)CC5CCOCC5)nc4[nH]3)nc12 [Example 14, [2-(4-Methoxy-7-morpholin-4-yl-benzothiazol-2-yl)-3H-imidazo[4,5-b]pyridin-5-yl]-methyl-(tetrahydro-pyran-4-ylmethyl)-amine] | – | 3.16 | 2510
11 | COCn1c(-c2nc3c(OC)ccc(N4CCOCC4)c3s2)nc2ccc(Cl)nc21 [Example 7, 5-Chloro-3-methoxymethyl-2-(4-methoxy-7-morpholin-4-yl-benzothiazol-2-yl)-3H-imidazo[4,5-b]pyridine] | 167 to 170 | – | –
12 | COc1ccc(N2CCOCC2)c2sc(-c3nc(Cc4cccs4)c[nH]3)nc12 (as salt: ammonium) [Example 21, 4-Methoxy-7-morpholin-4-yl-2-(4-thiophen-2-ylmethyl-1H-imidazol-2-yl)-benzothiazole] | 165 | – | –
13 | COc1ccc(N2CCOCC2)c2sc(-c3nc4ccccc4n3C)nc12 [Example 3, 4-Methoxy-2-(1-methyl-1H-benzoimidazol-2-yl)-7-morpholin-4-yl-benzothiazole] | 283 to 285 | 100 | –

More lines, now with the values ahead:

Row | melting point [°C] | Ki [1] [nM] | Ki [2] [nM] | Structure (SMILES)
14 | 268 to 271 | – | – | COc1ccc(N2CCOCC2)c2sc(-c3nc4c([nH]3)CCNC4)nc12.Cl
15 | 155 to 157 | – | – | COc1ccc(N2CCOCC2)c2sc(-c3nc4c([nH]3)CCN(C(C)=O)C4)nc12 [Example 39, 1-[2-(4-Methoxy-7-morpholin-4-yl-benzothiazol-2-yl)-1,4,6,7-tetrahydro-imidazo[4,5-c]pyridin-5-yl]-ethanone]
16 | 142 to 144 | – | – | COc1ccc(N2CCOCC2)c2sc(-c3nc4c([nH]3)CCN(C(=O)OC(C)(C)C)CC4)nc12 [Example 24, 2-(4-Methoxy-7-morpholin-4-yl-benzothiazol-2-yl)-4,5,7,8-tetrahydro-1H-imidazo[4,5-d]azepine-6-carboxylic acid tert-butyl ester]
17 | – | 1.58 | 1260 | COc1ccc(N2CCOCC2)c2sc(-c3nc4c([nH]3)CCN(C(=O)C3CC3)CC4)nc12 [Example 30, Cyclopropyl-[2-(4-methoxy-7-morpholin-4-yl-benzothiazol-2-yl)-4,5,7,8-tetrahydro-1H-imidazo[4,5-d]azepin-6-yl]-methanone]
18 | – | 3.16 | – | COc1ccc(N2CCOCC2)c2sc(-c3nc4ccc(Cl)nc4[nH]3)nc12 [Example 6, 5-Chloro-2-(4-methoxy-7-morpholin-4-yl-benzothiazol-2-yl)-3H-imidazo[4,5-b]pyridine]
19 | – | 2.51 | 794 | COc1ccc(N2CCOCC2)c2sc(-c3nc4c([nH]3)CCCC4)nc12 [Example 22, 4-Methoxy-7-morpholin-4-yl-2-(4,5,6,7-tetrahydro-1H-benzoimidazol-2-yl)-benzothiazole]
20 | 267 to 269 | – | – | COc1ccc(N2CCOCC2)c2sc(-c3nc4c([nH]3)CCNCC4)nc12.Cl
21 | – | 12.6 | 1000 | COc1ccc(N2CCOCC2)c2sc(-c3ncc[nH]3)nc12 [Example 1, 2-(1H-Imidazol-2-yl)-4-methoxy-7-morpholin-4-yl-benzothiazole]
22 | 195 to 197 | – | – | COc1ccc(N2CCOCC2)c2sc(-c3nc4c([nH]3)CCN(C(C)=O)CC4)nc12 [Example 27, 1-[2-(4-Methoxy-7-morpholin-4-yl-benzothiazol-2-yl)-4,5,7,8-tetrahydro-1H-imidazo[4,5-d]azepin-6-yl]-ethanone]
23 | 203 to 204 | 1.26 | 398 | COc1ccc(N2CCOCC2)c2sc(-c3nc4c([nH]3)COCC4)nc12 [Example 23, 2-(4-Methoxy-7-morpholin-4-yl-benzothiazol-2-yl)-3,4,6,7-tetrahydro-pyrano[3,4-d]imidazole]
24 | 194 to 196 | 1.26 | 1580 | COc1ccc(N2CCOCC2)c2sc(-c3nc4c([nH]3)CCN(C(=O)c3ccccc3C)CC4)nc12 [Example 28, [2-(4-Methoxy-7-morpholin-4-yl-benzothiazol-2-yl)-4,5,7,8-tetrahydro-1H-imidazo[4,5-d]azepin-6-yl]-o-tolyl-methanone]
25 | 205 to 207 | 1 | 631 | COc1ccc(N2CCOCC2)c2sc(-c3nc4c([nH]3)CCN(C(=O)c3ccc(F)cc3)CC4)nc12 [Example 26, (4-Fluoro-phenyl)-[2-(4-methoxy-7-morpholin-4-yl-benzothiazol-2-yl)-4,5,7,8-tetrahydro-1H-imidazo[4,5-d]azepin-6-yl]-methanone]
26 | 299 to 302 | – | – | COc1ccc(N2CCOCC2)c2sc(-c3nc4c([nH]3)CCN(CC(N)=O)CC4)nc12 [Example 46, 2-[2-(4-Methoxy-7-morpholin-4-yl-benzothiazol-2-yl)-4,5,7,8-tetrahydro-1H-imidazo[4,5-d]azepin-6-yl]-acetamide]
27 | 165 | – | – | COc1ccc(N2CCOCC2)c2sc(-c3nc4c([nH]3)CCCC4)nc12 (as salt: ammonium) [Example 22, 4-Methoxy-7-morpholin-4-yl-2-(4,5,6,7-tetrahydro-1H-benzoimidazol-2-yl)-benzothiazole]
28 | 284 to 286 | 0.501 | 158 | COc1ccc(N2CCOCC2)c2sc(-c3nc4ccccc4[nH]3)nc12 [Example 2, 2-(1H-Benzoimidazol-2-yl)-4-methoxy-7-morpholin-4-yl-benzothiazole]
